# Measurements: patent US8263655B2, “Methods for treatment of renal failure” (Technion Research and Development Foundation Ltd, priority 2005, dated 2012)
# Key:
# [1] = test system: rats with renal ischemia; test: Rat renal ischemia-reperfusion injury (IRI) model of acute renal failure, renal clearance study; type: in vivo, Sprague Dawley rats; conditions: for diuretic and natriuretic responses and GFR in the ischemic kidney: summary statement
# Experimental: (§1) (ii) Animals. Studies were conducted on Sprague Dawley rats (Harlan Laboratories Ltd., Jerusalem, Israel), weighing 290˜330 g. The animals were kept in a temperature-controlled room, and were fed standard rat chow containing 0.5% NaCl and tap water ad libitum. All experiments were performed according to the guidelines of the Technion Committee for Supervision of Animal Experiments (Haifa, Israel). Rats were subjected to one of the experimental protocols, described in Examples 1 and 2 hereinafter.
# (§2) (iii) Chemical analysis. Sodium concentration in plasma and urine was determined by flame photometry (model IL 943, Instrumentation Laboratory). Inulin and creatinine concentrations were determined by the colorimetric anthrone method. Glomerular filtration rate (GFR) was equated with the clearance of inulin or creatinine.
# For this purpose, the effects of either rasagiline or S-(−)-N-propargyl-1-aminoindan on renal clearance parameters, i.e., glomerular filtration rate (GFR), absolute and fractional sodium excretion rates (UNaV and FENa, respectively), and urinary flow (V) were studied in rats that underwent renal ischemia. Rats that underwent the same procedure, but were treated with vehicle, served as controls.
# The surgical procedure for the induction of renal ischemia has been previously described (Sela et al., 1992). Briefly, the animals were anesthetized with Inactin (100 mg/kg, i.p.), placed on a thermo-regulated (37° C.) surgical table and prepared for hemodynamic and clearance studies (Brodsky et al., 1998). After tracheotomy, polyethylene tubes (PE50) were inserted into the carotid artery, jugular vein and urinary bladder for blood pressure monitoring, infusion of various solutions and urine collections, respectively. A solution of 2% inulin in 0.9% saline was infused throughout the experiment at a rate of 1.0% of body weight per hour. […] Then, the left kidney was exposed and the renal artery was clamped for forty-five minutes of ischemia, followed by 60 min of reperfusion. The right kidney served as the control, for each animal. Thirty minutes prior to the induction of the renal ischemia, animals were treated with either rasagiline or S-(−)-N-propargyl-1-aminoindan administered as a bolus injection (1.0 mg/kg, I.V.), followed by a sustained infusion of the drugs at a dose of 2 mg/kg/h throughout the whole experiment. Animals treated with saline served as controls. Then, two additional clearance periods were obtained under the influence of the drug. Urine volume was determined gravimetrically. Blood samples were obtained in the midst of every 2nd clearance period.
# [2] = test system: rats with CHF; test: Chronic administration to rats with experimental congestive heart failure (aortocaval fistula), renal excretory parameters; type: in vivo, Sprague Dawley rats; conditions: for diuretic and natriuretic responses in rats with congestive heart failure: summary statement
# Experimental: as §1, §2
# Following surgery, the rats were allowed to recover and housed in individual metabolic cages for measurements of daily urine volume and urinary sodium/potassium excretion.
# Rasagiline or S-(−)-N-propargyl-1-aminoindan were dissolved in drinking water and given orally at a dose of 1 or 7.5 mg/kg/day for 5 days to normal rats. Following this period, the animals were subjected either to sham operation (n=6) or to creation of aortocaval fistula (ACF) (n=6) as described above. These experimental groups were treated daily by gavage with 1 or 7.5 mg/kg of rasagiline or S-(−)-N-propargyl-1-aminoindan for additional 14 days, and their daily urine volume, sodium and potassium excretion were measured. Rats treated with vehicle (water) served as controls. After completion of the treatment period, animals from the different experimental groups were killed by decapitation and their blood was collected in pre-cooled tubes. Rats with sham operation or animals with arterio-venous fistula treated with vehicle served as controls.
Structure (SMILES),"glomerular filtration rate (GFR), function of the ischemic kidney ([1]; ischemic (left) kidney, 1.0 mg/kg I.V. bolus 30 min prior to ischemia, then 2 mg/kg/h infusion, 45 min ischemia, 60 min reperfusion, FIG. 1B)","fractional excretion of Na+ (FENa) by ischemic kidney ([1]; ischemic kidney, 1.0 mg/kg I.V. bolus, then 2 mg/kg/h infusion, FIG. 2B)","fractional excretion of Na+ (FENa) by normal kidney ([1]; normal kidney, 1.0 mg/kg I.V. bolus, then 2 mg/kg/h infusion, FIG. 2A)",diuretic and natriuretic responses and GFR in the ischemic kidney ([1]; ischemic kidney),"GFR (creatinine clearance test) ([2]; rats with CHF, 1 or 7.5 mg/kg/day by gavage for 2 weeks, FIG. 6)","urinary flow rate (daily urine volume) ([2]; rats with CHF, 1 or 7.5 mg/kg/day orally, 14 days after fistula, FIGS. 3A-3B)","absolute (daily) urinary sodium excretion ([2]; rats with CHF, 1 or 7.5 mg/kg/day orally, 14 days, FIG. 4)","cumulative urinary sodium excretion ([2]; rats with CHF, 1 or 7.5 mg/kg/day orally, 14 days, FIG. 5)",diuretic and natriuretic responses in rats with congestive heart failure [2]
C#CCN[C@H]1CCc2ccccc21 [S-(−)-N-propargyl-1-aminoindan],improved the function of the ischemic kidney,enhanced FENa by ischemic kidney more than rasagiline,increased the fractional excretion of Na^+ (FENa) by normal kidney,diuretic and natriuretic responses accompanied by improved GFR,enhanced GFR,increased the urinary flow rate,markedly enhanced,markedly enhanced,significant diuretic and natriuretic responses
"C#CCN[C@@H]1CCc2ccccc21 [rasagiline, R(+)-N-propargyl-1-aminoindan, reference compound]",,,,diuretic and natriuretic responses accompanied by improved GFR,,,,,significant diuretic and natriuretic responses
